Test results from patent US20180147171A1, “TRANS10:CIS12 ISOMER OF CONJUGATED LINOLEIC ACID AS A THERAPEUTIC AND PREVENTATIVE AGENT FOR HYPERTENSION SPECIFIC TO PREGNANCY” (Wisconsin Alumni Research Foundation, priority 2012, published 2018).

Key:
ERK and Src signaling = conditions: cancer cells; earlier finding; cited from earlier work
[1] = system: ovine uterine artery endothelial cells from pregnant sheep (P-UAEC); assay: Fura-2 [Ca2+]i imaging: ATP stimulated Ca2+ burst number after VEGF pretreatment, with or without rescue agent; format: cell-based; conditions: for CLA rescue of VEGF inhibitory effects on subsequent ATP burst number: t10:c12 CLA 50 uM added before VEGF165 10 ng/ml, compared with PP2 10 uM; for CLA rescue of VEGF inhibitory effects on subsequent ATP burst number / rescue from VEGF165 mediated inhibition of subsequent ATP stimulated Ca2+ bursts: 30 min; for rescue from VEGF165 mediated inhibition of subsequent ATP stimulated Ca2+ bursts: rescue agent 10 uM added right before VEGF165 10 ng/ml, second ATP 100 uM response as % of first
Description: Studies in ovine uterine artery endothelial cells from pregnant sheep (P-UAEC). P-UAEC are a well-established cell model of endothelial cells isolated from uterine arteries and maintained in culture to passage 3 before freezing for future use.
Isolation of UAECs: Uterine arteries were obtained from Polypay and mixed Western breed nonpregnant sheep (n=4) and pregnant ewes (n=6) at 120-130 days of gestation during nonsurvival surgery, as described in the art. Procedures for animal handling and protocols for experimental procedures were approved by the University of Wisconsin-Madison Research Animal Care Committees of both the School of Medicine and Public Health and the College of Agriculture and Life Sciences and follow the recommended American Veterinary Medicine Association guidelines for humane treatment and euthanasia of laboratory farm animals.
Fura-2 [Ca^2+]i Imaging Studies: Uterine artery endothelial cells plated to 35-mm dishes with glass coverslip windows (MatTek Corp.) were grown to the required density (20%-100%, as described) and then loaded with 5 μM Fura-2 AM in Krebs buffer (125 mM NaCl, 5 mM KCl, 1 mM MgSO4, 1 mM KH2PO4, 6 mM glucose, 2 mM CaCl2, and 25 mM HEPES, pH 7.4) for 45 min. After rinsing and incubating a further 30 min to complete ester hydrolysis, Fura-2 loading was verified by viewing at 380-nm ultraviolet excitation on a Nikon inverted microscope (TS100; Melville, N.Y.). About 60 cells were then preselected and video recordings commenced using alternate excitation at 340 and 380 nm at 1-sec intervals and measuring emitted light using a digital camera. From the ratio of emission at 510 nm detected at the two excitation wavelengths, and by comparison to a standard curve established for the same settings using buffers of known free Ca^2+ concentration, the [Ca^2+]i was then calculated for individual cells in real time using InCyt Im2 software (Intracellular Imaging Inc., Cincinnati, Ohio).
Data in graphs is calculated comparing the cells repeated burst patterns before and after repeat treatment. ATP 100 μM 30 min followed by ATP 100 uM 30 min gives a marginal decline in number of Ca^2+ bursts (as defined in the art). However other agents activating protein kinases such as ERK and Src cause closure of CX43 and so loss of associated bursts. Therefore to perform the analysis, ATP stimulation is performed once to establish an uninhibited response for each cell. Then the inhibitory treatment under study is given (VEGF, 10 ng/ml or equivalent). After 30 minutes the second ATP treatment begins and burst response is expressed as % of the first ATP response. To then further test the protective or rescue effect of kinase inhibitors we follow the same protocol but add the rescue agent right before the VEGF. U0126 is an MEK/ERK pathway blocked, PP2 is a Src pathway blocker, and CLA is the test compound.

CX43 = assay: Phosphorylation of CX43 at specific inhibitory sites in VEGF-treated uterine artery endothelial cells; format: cell-based, sheep; conditions: cultured uterine artery endothelial cells from pregnant animals, VEGF inhibited, with rescue agent

Row | Compound | CLA rescue of VEGF inhibitory effects on subsequent ATP burst number ([1]; FIG. 4) | rescue from VEGF165 mediated inhibition of subsequent ATP stimulated Ca2+ bursts ([1]; FIG. 3) | phosphorylation of CX43 at specific inhibitory sites (CX43) | further results
1 | CCCCC/C=C\C=C\CCCCCCCCC(=O)O [t10:c12 CLA, t10:c12 conjugated linoleic acid] | can achieve the same rescue effect as PP2 |  |  | inhibition of ERK and Src kinase signaling pathways (ERK and Src signaling): can inhibit these pathways; CLA rescue of VEGF inhibitory effects on subsequent ATP burst number ([1]; FIG. 4, listed as CLA): improvement of function beyond rescue
2 | VEGF |  |  |  | effect of factor pretreatment on subsequent ATP stimulated Ca2+ bursts ([1]; 30 min pretreatment, 10 ng/ml, FIG. 3): inhibitory effects
3 | CCCCCC/C=C/C=C\CCCCCCCC(=O)O [c9:t11 CLA] | have not achieved rescue |  |  | 
4 | N#CC(=C(/N)Sc1ccccc1N)/C(C#N)=C(\N)Sc1ccccc1N [U0126] |  | can rescue the cells | reversal of the phosphorylation of CX43 | 
5 | CC(C)(C)n1nc(-c2ccc(Cl)cc2)c2c(N)ncnc21 [PP2] |  | can rescue the cells | reversal of the phosphorylation of CX43 | 
